Laboratory results as given in ChEMBL document CHEMBL3988442, “University of Dundee, Small-Polar-MMV Screening Library” (2021).

Legend:
Plasmodium falciparum = assay: Calibr Malaria Delayed Death Assay SOP; type: functional, organism-based; conditions: for IC50: Plasmodium falciparum
[1] = microbe, parasite or virus in culture; conditions: Mycobacterium tuberculosis, 96 h, read-out: pIC50 (converted)
[2] = microbe, parasite or virus in culture; conditions: Mycobacterium tuberculosis, 72 h, read-out: pIC50 (converted)

SMILES	pIC50 (Plasmodium falciparum)	IC50 (Plasmodium falciparum) [nM]	IC50 [1] [nM]	IC50 [2] [nM]
Fc1ccc(Sc2ccccc2CNC2=NCCN2)cc1.I	5.875	1210	–	–
Fc1ccccc1Sc1ccccc1CNC1=NCCN1.I	5.863	1610	–	–
O=S(=O)(NC[C@H]1C[C@@H]2CCN1C[C@@H]2CN1CCCC1)c1ccc(Cl)cc1	5.945	1130	–	–
CN(C[C@H]1CN2CC[C@H]1C[C@@H]2CNC(=O)c1ccco1)c1ccccc1	5.968	1130	–	–
O=C([C@@H]1Cc2[nH]cnc2CN1Cc1cc2ccccc2o1)N1CCCC1	5.967	1090	–	–
COc1ccc2[nH]c(C[C@@H]3C[C@@H](C(C)C)[C@H](CN(C)C)C=C3C)nc2c1	6.245	615	–	–
NC(=O)c1cccc2nc([C@H]3CCN(Cc4ccccn4)C3)[nH]c12	7.592	27.5	–	–
CCC1CN(CC(=O)NCCN2CCCCC2)c2ccccc2S1 (centres undefined)	6.107	937	–	–
CN1CC[C@H](N(Cc2ccccc2)Cc2ccccc2)C[C@H](O)C1	6.066	897	–	–
CN1CC[C@H](N(Cc2ccccc2)CC2CC2)C[C@H](O)C1	5.964	1570	–	–
CC(C)n1ncc2c1NC(=O)CC21C(=O)Nc2c(Cl)ccc(Cl)c21 (centres undefined)	5.929	1080	–	–
O=S(=O)(NCC(c1ccsc1)N1CCCCCC1)c1cccs1 (centres undefined)	6.118	904	–	–
Cc1cc(CN2CCC(CNS(=O)(=O)c3ccc(Br)s3)CC2)c(C)o1	6.178	639	–	–
COc1ccc(CCC(=O)NCCN2CCC(c3cccs3)CC2)cc1	6.185	781	–	–
O=C(NCCc1ccccc1)NCCN1CCC(c2cccs2)CC1	6.05	855	–	–
COc1ccc(NC(=O)Nc2cnc(N3CCN(C)CC3)nc2)cc1Cl	6.139	843	–	–
CN(C)CC1CSCCCN1S(=O)(=O)Cc1cccc(F)c1 (centres undefined)	6.26	751	–	–
Cc1cc(S(=O)(=O)N2CCC(N3CCC(O)C3)CC2)c(Cl)cc1Cl (centres undefined)	5.897	958	–	–
NCC1[C@H]2CN(Cc3cccc(Cl)c3)C[C@@H]12 (some centres undefined)	6.278	553	–	–
COc1ccc(N2CCCC3(C2)CN(c2nncs2)CCO3)cc1 (centres undefined)	6.845	173	–	–
COc1cccc(-n2ccc3nc(N4CCCC4)ncc3c2=O)c1	5.801	1470	–	–

SMILES	pIC50 (Plasmodium falciparum)	IC50 (Plasmodium falciparum) [nM]	IC50 [1] [nM]	IC50 [2] [nM]
COc1ccc(-c2c(C)nn3c(=N)c(C#N)n[nH]c23)cc1OC	6.297	538	–	–
O=C(Cn1ccc2ccc(Br)cc21)NC[C@@H]1CCCN2CCCC[C@H]12	5.89	1280	–	–
Cc1ccc(CNC(C)c2cc(F)ccc2N2CCN(C)CC2)o1 (centres undefined)	6.454	329	–	–
CCC(CC)(CN)NC(C)c1ccccc1 (centres undefined)	6.003	924	–	–
Cn1ccnc1C(O)(CCNCc1ccc(Cl)o1)C(F)(F)F (centres undefined)	5.844	1740	–	–
CC(O)CN1CCC(CN(C)Cc2cc(F)cc3cccnc23)CC1 (centres undefined)	5.98	1120	–	–
CN(Cc1cc(F)cc2cccnc12)CC1CCN(CCO)CC1	6.165	835	–	–
CN(Cc1cc(Cl)cc2cccnc12)CC1CCN(CCO)CC1	6.604	346	–	–
CC(NCCc1nccn1Cc1ccccc1)c1cccs1 (centres undefined)	5.98	1290	–	–
CC(NCCc1nccn1Cc1ccccc1)c1ccsc1 (centres undefined)	6.094	1000	–	–
Cc1ccc(C(C)NCCc2nccn2Cc2ccccc2)o1 (centres undefined)	5.88	1260	–	–
CN(C)CCN(Cc1cccnc1)C(=O)c1ccn(-c2ccccc2)n1	5.955	876	–	–
O=C(CC1CCCC1)NCCNCc1cccc2c1OCCO2	6.128	938	–	–
CCOc1ccc(Br)cc1C1CCCCN1.Cl (centres undefined)	6.053	737	–	–
CCOc1ccc(Cl)cc1C1CCCCN1.Cl (centres undefined)	6.229	612	–	–
Cc1c(C)n(CC(O)CN2CCN(CCO)CC2)c2c(Cl)cccc12.Cl (centres undefined)	6.075	950	–	–
Cc1cc(C)c(CNCC(O)c2ccc(F)c(F)c2)c(C)c1.Cl (centres undefined)	6.932	125	–	–
O=C(O)C(F)(F)F.c1ccc(C[C@H]2CN(C3CCOCC3)CC[C@H]2OCC2CC2)cc1	6.236	757	–	–
CN1CCC2(CCCN(c3nccc(C(F)(F)F)n3)C2)CC1.O=C(O)C(F)(F)F	6.246	771	–	–
CC(C)N1CCC2(CCCN(c3nccc(C(F)(F)F)n3)C2)CC1.O=C(O)C(F)(F)F	6.114	550	–	–
O=C(O)C(F)(F)F.c1ccc(N2CCCC3(CCN(Cc4ccsc4)C3)C2)nc1 (centres undefined)	6.157	842	–	–

SMILES	pIC50 (Plasmodium falciparum)	IC50 (Plasmodium falciparum) [nM]	IC50 [1] [nM]	IC50 [2] [nM]
CC(C)C(=O)N1CCCC2(CCCN2CC2CCCC2)C1.O=C(O)C(F)(F)F (centres undefined)	5.828	1150	–	–
O=C(O)C(F)(F)F.c1ccc(NC[C@@H]2CCC[C@@H]3CN(Cc4cccnc4)C[C@@H]32)nc1	5.946	1220	–	–
CC(C)Oc1ncnc2c1CCN(Cc1ccco1)CC2.O=C(O)C(F)(F)F	6.106	1020	–	–
Fc1cccc(CN2C[C@@H]3CN(Cc4ccccn4)C[C@@H]3C2)c1.O=C(O)C(F)(F)F.O=C(O)C(F)(F)F	6.169	531	–	–
Fc1ccc(CN2CCC3(CC2)CCN(Cc2nccs2)CC3)cc1.O=C(O)C(F)(F)F.O=C(O)C(F)(F)F	6.206	708	–	–
Cc1ccc(CN2CCC3(CC2)CCN(Cc2ccoc2)CC3)cc1.O=C(O)C(F)(F)F.O=C(O)C(F)(F)F	6.821	202	–	–
Cc1ccc(CN2CCC3(CC2)CCN(Cc2ccco2)CC3)cc1.O=C(O)C(F)(F)F.O=C(O)C(F)(F)F	6.236	555	–	–
Cc1ccc(CN2CCCC3(CCN(Cc4ccoc4)CC3)C2)cc1.O=C(O)C(F)(F)F.O=C(O)C(F)(F)F	6.068	1110	–	–
O=C(O)C(F)(F)F.O=C(O)C(F)(F)F.c1cncc(N2CCCC3(CCN(CCN4CCCC4)CC3)C2)c1	5.977	1020	–	–
CN(C)[C@@H]1CCN(c2ncc(F)cn2)[C@H]1Cc1ccccc1.O=C(O)C(F)(F)F.O=C(O)C(F)(F)F	6.038	868	–	–
CN(Cc1ccco1)C[C@H]1OC[C@@H]2CCN(Cc3ccsc3)C[C@@H]21.O=C(O)C(F)(F)F.O=C(O)C(F)(F)F	6.029	1290	–	–
CCN1CCC2(CC1)CC(NCc1cccs1)c1ccccc1O2.O=C(O)C(F)(F)F.O=C(O)C(F)(F)F (centres undefined)	6.431	287	–	–
O=C(O)C(F)(F)F.O=C(O)C(F)(F)F.O=C(O)C(F)(F)F.c1ccc(CN2CCCC3(CCN(Cc4cccs4)C3)C2)nc1 (centres undefined)	6.204	735	–	–
CN1CCn2c(-c3cccc(F)c3)cnc2C12CCN(CC1CC1)CC2.O=C(O)C(F)(F)F.O=C(O)C(F)(F)F.O=C(O)C(F)(F)F	6.083	1100	–	–
Cc1ccc(CN2CC[C@H]3[C@H](CC(Cn4cccn4)N3C)C2)s1.O=C(O)C(F)(F)F.O=C(O)C(F)(F)F.O=C(O)C(F)(F)F (some centres undefined)	6.142	814	–	–
CN1[C@H](Cn2cccn2)C[C@@H]2CN(Cc3cccs3)CC[C@@H]21.O=C(O)C(F)(F)F.O=C(O)C(F)(F)F.O=C(O)C(F)(F)F	6.221	593	–	–
CN(Cc1ccco1)C[C@H]1OC[C@@H]2CCN(Cc3ccccn3)C[C@@H]21.O=C(O)C(F)(F)F.O=C(O)C(F)(F)F.O=C(O)C(F)(F)F	5.905	1720	–	–
CCN1CCC2(CC1)CC(NCc1cccc(C)n1)c1ccccc1O2.O=C(O)C(F)(F)F.O=C(O)C(F)(F)F.O=C(O)C(F)(F)F (centres undefined)	6.22	780	–	–
CCN1CCC2(CC1)CC(NCc1ccncc1)c1ccccc1O2.O=C(O)C(F)(F)F.O=C(O)C(F)(F)F.O=C(O)C(F)(F)F (centres undefined)	6.198	579	–	–
CN(CCO)CC1COCCN1C(=O)C1(c2cccs2)CCCC1.O=CO (centres undefined)	6.007	573	–	–
Br.Cc1cc(C)c(N(CC(O)CNCc2ccccc2)S(C)(=O)=O)c(C)c1 (centres undefined)	6.525	355	–	–

SMILES	pIC50 (Plasmodium falciparum)	IC50 (Plasmodium falciparum) [nM]	IC50 [1] [nM]	IC50 [2] [nM]
Br.CCOc1ccc(Br)cc1C1CCCN1 (centres undefined)	6.082	534	–	–
I.c1ccc(Sc2ccc3c(c2)OCO3)c(CNC2=NCCN2)c1	6.103	604	–	–
CC(N)Cc1ccccc1Sc1ccccc1.O=C(O)/C=C\C(=O)O (centres undefined)	6.082	854	–	–
O=C(COc1ncccn1)Nc1ccc(F)cc1F	–	–	> 501000	> 501000
Cc1onc(N)c1S(=O)(=O)NCc1ccccc1Cl	–	–	> 501000	156000
CSc1ccc2c(c1)CCN(C(=O)C1CCNC1)C2 (centres undefined)	–	–	> 501000	168000
CC1CN(CCC(=O)NCc2cccs2)CCCO1 (centres undefined)	–	–	> 501000	> 501000
N[C@@H]1CC[C@H](C(=O)NCCOCc2ccccc2)C1	–	–	267000	226000
CC(C)CC(O)C(=O)NCc1cc2ccccc2[nH]1 (centres undefined)	–	–	> 501000	> 501000
CCCC(C)NC(=O)c1coc(C)n1 (centres undefined)	–	–	> 501000	> 501000
NCC(=O)N1CCCC(CCc2ccc(F)cc2)C1 (centres undefined)	–	–	310000	333000
N#Cc1nc(-c2ccccc2)oc1NCCCO	–	–	> 501000	243000
CC(C(=O)Nc1ccc(Br)cc1)n1cnnn1 (centres undefined)	–	–	199000	393000
COC(=O)COc1ccc2c(c1)OCO2	–	–	> 501000	140000
Cc1cc(CN2CCC(Oc3cccnc3)CC2)on1	–	–	> 501000	> 501000
NCC(=O)N1CCCC(CCc2ccc(F)cc2F)C1 (centres undefined)	–	–	310000	137000
CSc1cccc(CN(C)C(=O)CNC2CC2)c1	–	–	> 501000	297000
O=C(CO)N1CCCC(CCc2ccccc2F)C1 (centres undefined)	–	–	142000	196000
COCCCN1CCN(c2ccccc2OC)CC1 [DIMETHOLIZINE]	–	–	> 501000	346000
